Test results taken from EP4768492A1, “CAPPING COMPOUND, AND APPLICATION THEREOF IN MRNA CAPPING” (Jiangsu Synthgene Biotechnology Co., Ltd., priority 2023, dated 2025).

How the values were obtained:
mRNA [1] = assay: mRNA in vitro transcription (IVT) yield with cap analog; type: biochemical; conditions: mRNA yield of IVT reaction, 37 °C 2 h, purified mRNA quantified by Nanodrop One
Experimental: (§1) mRNA IVT reactions were performed using the cap analogs from the examples. Firstly, the required volumes of materials for the system were calculated, and then the samples were added (the IVT reaction system is shown in Table 1). Sterile enzyme-free water was added to the system, and then 10× buffer, NTPs, and the cap analog were sequentially added. The mixture was uniformly mixed and then gently centrifuged, followed by the addition of the nuclease inhibitor, the inorganic pyrophosphatase, the T7 RNA polymerase, and the linearized DNA template. The resulting mixture was thoroughly mixed, then gently centrifuged, and incubated at 37 °C. After 2 h, DNase I (1 U) was added, and the mixture was incubated at 37 °C for another 30 min to remove the DNA template. RNA purification was then performed using a magnetic bead purification method. The purified mRNA was dissolved in sterile enzyme-free water, and then quantitative detection was performed using Nanodrop One. Table 1. IVT reaction system

mice = assay: mRNA translation efficiency in mice: LNP-mRNA by tail vein, luciferase in vivo imaging; conditions: 1 µg LNP-mRNA; for protein expression levels in mice: 24 hours after administration, compared to Comparative Example 1; for distribution after tail vein administration: mice, in vivo imaging (FIG. 1)
Experimental: The tail of each mouse was gently wiped with an alcohol cotton ball, and 1 µg of an LNP-mRNA drug was injected via the tail vein using an insulin syringe. Twenty-four hours after the tail vein administration, the mouse was intraperitoneally injected with 10% chloral hydrate (anesthetized according to the mouse body weight, 50-60 µL/20 g). After the mouse was anesthetized, 150 µL of a prepared luminescent substrate (luminescent substrate concentration: 15 mg/mL, Cat. No. 2109GR001, brand: biofroxx) was intraperitoneally injected. Five minutes after the injection of the luminescent substrate into the mouse, the mouse was placed in a small animal in vivo imaging system. The corresponding luciferase channel was selected to capture an in vivo image of the mouse, and the image was saved. This procedure was repeated at other time points, and the exposure parameters should be kept consistent for comparison.

mRNA [2] = assay: IVT capping rate of mRNA by LC-MS after RNase H cleavage; type: biochemical
Experimental: as §1
Liquid chromatography-mass spectrometry (LC-MS) was used to detect the IVT capping rates of mRNAs with different starting cap analogs. Firstly, a labeled (usually biotin-labeled) DNA probe matched with the starting base of the transcribed mRNA product was required to be designed, and streptavidin-labeled magnetic beads were washed, and then incubated with the synthesized DNA probe, mRNA, and 10× RNase H reaction buffer with slow mixing at room temperature for 30 min. Subsequently, 20 µL of RNase H (5 U/µL) was added, and the mixture was incubated at 37 °C for 3 h, with uniform mixing every half hour. After the incubation was completed, the magnetic beads were washed, and then 100 µL of 75% methanol heated to 80 °C was added to the washed magnetic beads. The mixture was heated to 80 °C on a heating plate, held for 3 min, and then placed on a magnetic rack. The supernatant was pipetted and dried at room temperature for 45 min to 10 µL by using an evaporation centrifuge. The sample was then resuspended in 50 µL of 100 µM EDTA/1% MeOH for LC-MS analysis to determine the capping of RNA in the transcription reaction. Since capped and uncapped bases have a distinct difference in molecular weight, the capping rates of mRNA transcription processes initiated with different cap analogs can be determined by utilizing this difference in molecular mass.

| Structure (SMILES) | Yield (µg) in 20 µL system (mRNA [1]) [µg] | protein expression levels in mice (mice) | distribution after tail vein administration (mice) | Capping rate (%) (mRNA [2]) |
| --- | --- | --- | --- | --- |
| COC1C(OP(=O)(O)OCC2OC(n3cnc4c(=O)[nH]c(N)nc43)C(O)C2O)C(COP(=O)(O)OP(=O)(O)OP(=O)(O)C2CC2C2OC(n3c[n+](C)c4c(=O)[nH]c(N)nc43)C(O)C2O)OC1n1cnc2c(N)ncnc21 (stereo not shown) [Compound 1] | 114 | higher protein expression levels in mice compared to Comparative Example 1 | mainly distributed in the liver | 99.1 |
| COC1C(OP(=O)(O)OCC2OC(n3cnc4c(=O)[nH]c(N)nc43)C(O)C2O)C(COP(=O)(O)OP(=O)(O)OP(=O)(O)C2CC2C2OC(n3c[n+](C)c4c(=O)[nH]c(N)nc43)C(O)C2CNC(C)=O)OC1n1cnc2c(N)ncnc21 (stereo not shown) [Compound 10] | 103 |  |  | 96.3 |
| CO[C@@H]1[C@H](OP(=O)(O)OC[C@H]2O[C@@H](n3cnc4c(=O)[nH]c(N)nc43)[C@H](O)[C@@H]2O)[C@@H](COP(=O)(O)OP(=O)(O)OP(=O)(O)OC2([C@H]3O[C@@H](n4c[n+](C)c5c(=O)[nH]c(N)nc54)[C@H](O)[C@@H]3O)CC2)O[C@H]1n1cnc2c(N)ncnc21 [Compound 31] | 112 | higher protein expression levels in mice compared to Comparative Example 1 | mainly distributed in the liver | 98.5 |
| CO[C@@H]1[C@H](OP(=O)(O)C2CC2[C@H]2O[C@@H](n3cnc4c(=O)[nH]c(N)nc43)[C@H](O)[C@@H]2O)[C@@H](COP(=O)(O)OP(=O)(O)OP(=O)(O)OC[C@H]2O[C@@H](n3c[n+](C)c4c(=O)[nH]c(N)nc43)[C@H](O)[C@@H]2O)O[C@H]1n1cnc2c(N)ncnc21 (stereo partly shown) [Compound 22] | 115 |  |  | 96.0 |
| COC1C(OP(=O)(O)OCC2OC(n3cnc4c(=O)[nH]c(N)nc43)C(O)C2O)C(COP(=O)(O)OP(=O)(O)OP(=O)(O)C2CC2C2OC(n3c[n+](C)c4c(=O)[nH]c(N)nc43)C(F)C2O)OC1n1cnc2c(N)ncnc21 (stereo not shown) [Compound 9] | 98 |  |  | 94.5 |
| COCC1C(O)C(n2c[n+](C)c3c(=O)[nH]c(N)nc32)OC1C1CC1P(=O)(O)OP(=O)(O)OP(=O)(O)OCC1OC(n2cnc3c(N)ncnc32)C(OC)C1OP(=O)(O)OCC1OC(n2cnc3c(=O)[nH]c(N)nc32)C(O)C1O (stereo not shown) [Compound 5] | 110 |  |  | 96.3 |
| CO[C@@H]1[C@H](OP(=O)(O)OC[C@H]2O[C@@H](n3cnc4c(=O)[nH]c(N)nc43)[C@H](O)[C@@H]2O)[C@@H](C2CC2P(=O)(O)OP(=O)(O)OP(=O)(O)OC[C@H]2O[C@@H](n3c[n+](C)c4c(=O)[nH]c(N)nc43)[C@H](O)[C@@H]2O)O[C@H]1n1cnc2c(N)ncnc21 (stereo partly shown) [Compound 21] | 99 |  |  | 97.1 |
| CO[C@@H]1[C@H](OP(=O)(O)OC[C@H]2O[C@@H](n3cnc4c(=O)[nH]c(N)nc43)[C@H](O)[C@@H]2O)[C@@H](COP(=O)(O)OP(=O)(O)OP(=O)(O)OC[C@H]2O[C@@H](n3c[n+](C)c4c(=O)[nH]c(N)nc43)[C@H](O)[C@@H]2O)O[C@H]1n1cnc2c(N)ncnc21 [Compound 43, reference compound] | 105 |  | mainly distributed in the liver | 96.1 |
| CO[C@@H]1[C@H](OP(=O)(O)OC[C@H]2O[C@@H](n3cnc4c(=O)[nH]c(N)nc43)[C@H](O)[C@@H]2O)[C@@H](COP(=O)(O)OP(=O)(O)OP(=O)(O)OC2([C@H]3O[C@@H](n4c[n+](C)c5c(=O)[nH]c(N)nc54)[C@H](O)[C@@H]3OC)CC2)O[C@H]1n1cnc2c(N)ncnc21 [Compound 32] | 116 | higher protein expression levels in mice compared to Comparative Example 1 | mainly distributed in the liver | 98.9 |
| COC1C(O)C(n2c[n+](C)c3c(=O)[nH]c(N)nc32)OC1C1CC1P(=O)(O)OP(=O)(O)OP(=O)(O)OCC1OC(n2cnc3c(N)ncnc32)C(OC)C1OP(=O)(O)OCC1OC(n2cnc3c(=O)[nH]c(N)nc32)C(O)C1O (stereo not shown) [Compound 2] | 117 | higher protein expression levels in mice compared to Comparative Example 1 | mainly distributed in the liver | 98.4 |
| CO[C@@H]1[C@H](OP(=O)(O)OC[C@H]2O[C@@H](n3cnc4c(=O)[nH]c(N)nc43)[C@H](O)[C@@H]2O)[C@@H](COP(O)(=S)OP(=O)(O)OP(=O)(O)C2CC2[C@H]2O[C@@H](n3c[n+](C)c4c(=O)[nH]c(N)nc43)[C@H](O)[C@@H]2O)O[C@H]1n1cnc2c(N)ncnc21 (stereo partly shown) [Compound 14] | 102 |  |  | 98.0 |
